Converted amounts (≈) assume the structure as drawn. Like-named read-outs stand apart in the source and are kept apart here.
Key:
[1] = 1500 to 3000 mg/day in humans, 19 subjects, reduced from 7.5; Jarrar 1996; cited from earlier work
[2] = tested on: iNOS biosynthesis of NO in C2C12 myocytes; assay: Inhibition of LTI (LPS/TNFα/IFγ)-stimulated iNOS biosynthesis of NO in C2C12 myocytes; format: cell-based, murine; conditions: Mus musculus
From the text: The Model—The C2C12 murine myocyte model was used in this Example. This model was selected to serve as the surrogate for muscle cells of the bladder that are exposed to the inflammatory stimuli of the invading bacteria, modeled by lipopolysaccharide (LPS), as well as the counter-inflammatory responses of the bladder infiltrating macrophage, modeled by interferon gamma (IFγ) and tumor necrosis factor alpha (TNFα). […] A significant increase in baseline NO production in cats with feline interstitial cystitis compared with that in healthy cats has been found in smooth muscle and mucosal strips.
(§1) Cell culture and treatment—Mouse C2C12 myoblasts (American Type Culture Collection, Manassas, Va.) were maintained in Dulbecco's modified Eagle's medium (DMEM) supplemented with 10% fetal calf serum (FCS), 50 units/ml penicillin and 50 μg/ml streptomycin. As cells reached confluence, the medium was switched to the differentiation medium containing DMEM and 2% horse serum. Medium was changed every other day. After 4 additional days, the differentiated C2C12 cells had fused into myotubes, which were then treated in serum-free DMEM with either vehicle alone (0.1% DMSO), or 50, 10, 5, or 1 μg thymoquinone/mL for 1 hour and then stimulated with a cytokine mixture containing 1 μg LPS/mL, 50 ng TNFα/mL and 100 U IFγ/mL (LTI) for 20 hours. At the end of the treatment period, media were sampled for determination of NO.
Nitric oxide determination—NBD methylhydrazine (NBDM, N-methyl-4-hydrazino-7-nitrobenzofurazan) was used to detect N-methyl-4-amino-7-nitrobenzofuazan, the fluorescent product of the NBDM reagent with nitrite (Buldt A, Karst U. Determination of nitrite in waters by microplate fluorescence spectroscopy and HPLC with fluorescence detection. Anal Chem. Aug. 1, 1999; 71(15):3003-3007). In a separate, black-walled, 96-well, microtiter plate, a 7 μL aliquot of a 4.8×10^−4 mol NBDM/L solution was added to 200 μL of the supernatant media followed by the addition of 15 μL of concentrated phosphoric acid. After a reaction time of 30 minutes at ambient temperature, the fluorescence was read with 485 nm excitation filter and a 530 nm emission filter in a Packard Fluorocount spectrofluorometer (Model#BF10000, Meridan, Conn.). Fluoresence was linear in the range of 3.59×10^−7 to 1.44×10^−5 mol nitrite/L. The standard deviation was 3.5 percent for 1.44×10^−6 mol nitrite/L. Experiments were performed a minimum of three times with eight replicates per dose, capturing the median inhibitory concentration (IC50) when possible.
Calculations—The median inhibitory concentrations (IC50) and 95% confidence interval were calculated using CalcuSyn (BIOSOFT, Ferguson, Mo.). This statistical package performs multiple drug dose-effect calculations using the Median Effect methods described by Chou and Talalay [Chou T C, Talalay P. Quantitative analysis of dose-effect relationships: the combined effects of multiple drugs or enzyme inhibitors. Adv Enzyme Regul. 1984; 22:27-55].
The Model—The C2C12 murine myocyte model as described in Example 1 was used.
as §1, with “units/mL” for “units/ml”, “μg/mL of the thymoquinone test formulation” for “μg thymoquinone/mL”, “IFγ/mL” for “IFγ/mL (LTI)”, “NO. […]” for “NO.”

[3] = tested on: NO production in LPS-stimulated macrophages; conditions: single stimulating agent, El-Mahmoudy 2002; cited from earlier work
[4] = pure compounds from Sigma, LTI-stimulated C2C12 myocytes as in Example 1, read-out: median inhibitory concentration

Question: With `CSCC[C@H](N)C(=O)O` [Methionine] as the compound, how does the “mean pH values of the urine after treatment” value [1] read?
Answer: 5.5

Question: Which IC50 [2, 4] does the source give for `CC=Cc1ccc(OC)cc1` [anethole] here?
Answer: ≥ 10 µg/mL

Question: With `Cc1ccc(C(C)C)cc1O` [carvacrol] as the compound, how does the IC50 ([2]; C2C12, read-out: median inhibitory concentration) read?
Answer: ≥ 10 µg/mL

Question: For `Cc1ccc(C(C)C)cc1` [cymene], which IC50 [2, 4] is on record?
Answer: ≥ 10 µg/mL

Question: With `Cc1ccc(C(C)C)c(O)c1` [thymol] as the compound, how does the IC50 [2, 4] read?
Answer: ≥ 10 µg/mL

Question: With `CC1=CC(=O)C(C(C)C)=CC1=O` [thymoquinone] as the compound, how does the IC50 ([2]; C2C12 myotubes, 1 h pre-treatment, then LPS/TNFα/IFγ mixture for 20 h, 95% confidence interval 1.1 to 2.3 μg/mL, read-out: median inhibitory concentration of iNOS-mediated NO production) read?
Answer: 1.6 µg/mL (≈ 9.74 µM)

Question: And the IC50 ([2]; LTI-stimulated C2C12 myocytes, adjusted for thymoquinone content, brackets = 95% confidence interval, read-out: Adjusted iNOS (IC50))?
Answer: 1.6 µg/mL (≈ 9.74 µM)

Question: What about the “IC50 inhibiting NO production” value [3] of the same compound?
Answer: 1.4 to 2.8 µg/mL
